Results reported in publication PMC3569039 (Bioorganic & medicinal chemistry letters, 2011).

Tested on: HeLa cells

Substance: Fluo-3
- cellular debris in treated cells (apparent cytotoxicity): significant amount of cellular debris
